In patent US11154551B2, “HDAC1,2 inhibitors and methods of using the same” (UNIVERSITY OF UTAH RESEARCH FOUNDATION, priority 2014, dated 2021):
Entries after “also recorded” stand apart in the source; their conditions may differ.

Assays:
Hdac1,2 = assay: in vitro enzyme assays, IC50 determination (FIG. 17A); assay type: biochemical
Method: (A). For IC50 determination, recombinant HDAC enzymes were treated with HDAC1,2 or HDAC3 inhibitors in in vitro HDAC assays. (B). Western blots for H3K23ac using extracts from Pre-B-ALL SupB15 cells treated with increasing dose of HDAC1,2 inhibitor (ACY1035). (C). Hdac1^FI/FI, 2^FI/FI cells were infected with Ad-Cre virus to delete HDAC1 and HDAC2 (HDAC1,2 null) or uninfected (WT). (D). Hdac3^FI/FI cells were either uninfected (WT) or infected with Ad-Cre virus to delete Hdac3. HDAC3-null cells were treated with DMSO or the HDAC1,2 selective inhibitor.
We have determined 2 μM (FIG. 17B) as the minimum dose for the ACY compounds, respectively, that when added to cells increased H3K23ac (a mark targeted by Hdac1,2 but not Hdac3).

[1] = test system: SupB15 (Ph+PreB-ALL) cells; assay: γH2AX immunofluorescence; assay type: cell-based, human; conditions: 2 μM, 48 hours
Method: (§1) SupB15 cells were treated with 2 μM ACY1035, ACY1071, ACY957, or solvent (DMSO) for 48 hours. (A) Immunofluorescence with γH2AX was performed on treated SupB15 cells. The number of γH2AX foci was counted in around 100 cells for each treatment and classified into cells with no foci, 1-5, 6-10, and greater than 10 foci. (B) SupB15 cells treated with DMSO or ACY1035 for 48 hours were tested via neutral comet assay to measure the amount of double-strand breaks (DSBs), indicated by the tail.
BCR-ABL promotes DNA repair to prevent DNA damage accumulation in Philadelphia chromosome-positive (Ph+) leukemia cells. To examine the effect of various HDAC1,2-selective inhibitors on DNA repair and DNA damage response in Pre-B-ALL cells that express BCR-ABL, SupB15 (Ph+PreB-ALL) cells were treated with 2 μM ACY1035 or 2 μM ACY1071 or 2 μM ACY957 for 48 hours.

SupB15 cells [2] = assay: neutral comet assay; assay type: cell-based, human; conditions: 48 hours
Method: as §1
We next asked whether double-strand break repair is impaired in SupB15 cells. We used neutral comet assays to measure the efficiency of double-strand break repair following treatment with ACY1035 for 48 hours. The neutral comet assay specifically measures double-strand breaks and not single-strand breaks. In this assay, control and HDAC1,2 inhibitor treated SupB15 cells were embedded in low melting agarose and subjected to electrophoresis to separate damaged DNA from intact DNA. Damaged DNA runs faster and therefore forms a tail, and the intact DNA is present in the head (FIG. 24B). DNA was visualized with sybrgreen staining.

SupB15 cells [3] = assay: BrdU ChIP assay, γH2AX on nascent chromatin; assay type: cell-based, human
From the text: The majority of chromatin-bound proteins that decreased following ACY1035 plus doxorubicin treatment compared to ACY1035 treatment alone belong to DNA replication and DNA replication-associated repair processes (FIGS. 29A and 29B).

[4] = test system: Ph+ALL patient derived xenograft; assay: Ph+ALL patient-derived xenograft mouse model; assay type: in vivo; conditions: for human CD45 and CD19 markers in bone marrow: 25 mg/kg ACY1035 every other day i.p., 0.25 mg/kg doxorubicin once a week i.v., vs solvent; for white cell burden: vs solvent-treated mice
Method: Patient-derived xenograft mice were treated with either cyclodextrin (solvent) or 25 mg/kg ACY1035 every other day for a total of 21 doses. (A) The level of human CD19, CD45, and CD34 markers were assessed in the bone marrow of these mice by FACS analysis. For each FACS marker, the bars represent (from left to right): solvent, ACY1035, doxorubicin, ACY1035+doxorubicin. (B) Solvent-treated mice have bones infiltrated with white blood cells.
Additional experiments were performed to assess the therapeutic benefits of HDAC1,2 inhibition in vivo using primary Ph+ALL patient derived xenograft mouse models. NOD/SCID mice were irradiated with a sub lethal dose of irradiation to ablate the immune system in these mice. Immune-compromised NSG mice were then injected with 2×10^6 CD34+ cells isolated from a Ph+ ALL patient. Bone and spleens were harvested from these primary xenograft mice when the leukemia burden reached the maximum 90-95% level as determined by FACS analysis for human CD19 and CD45 markers. Cells isolated from bone marrow and spleen of these primary xenograft mice were frozen in liquid nitrogen until use. A mixture of bone marrow and spleen cells from the primary xenograft mice was then injected into a cohort of sub-lethally irradiated NOD/SCID mice. Mice were divided into four treatment groups: solvent, ACY1035, doxorubicin, and ACY1035 plus doxorubicin. Xenograft mice were injected according to one of the four treatment groups after 5 days post-xenograft induction, when human CD45 marker reached around 5-10% in the peripheral blood. Mice were injected with 25 mg/kg ACY1035 every other day via i.p. and 0.25 mg/kg doxorubicin once a week via i.v., a dosing schedule that has minimal toxicity in immune compromised mice.
In this PDX model, the majority of leukemia cells homed in the bone marrow and not spleen. […] Furthermore, a decrease in human CD34+ stem/progenitor cells was observed similar to the results obtained from in vitro studies (FIG. 33A). […] The disclosed mechanistic and preclinical results provide strong evidence that HDAC1,2 inhibition or HDAC1,2 inhibition in combination with doxorubicin can provide a very potent therapeutic for Ph+PreB-ALL.

[5] = test system: non-transformed, mouse bone marrow Pro-B derived Baf3 cells or cord blood stem cells; assay: cell death in non-transformed cells; assay type: cell-based; conditions: 2 μM, within 72 hr
From the text: Therefore, transformed lymphoma cells are more sensitive to HDAC1,2 inhibition when compared to the untransformed normal B-cells. HDAC1,2 inhibitor causes replication fork collapse in S-phase to trigger DNA damage response, and transformed cancer cells have increased DNA replication when compared to normal B cells. […] In addition to this property, EZH2^GOF DLBCL cells also have increased DNA repair compared to EZH2^WT DLBCL cells (FIG. 34A), which can also be targeted by HDAC1,2 inhibitor as it impairs the HDAC1,2 regulated DNA repair processes used by EZH2^GOF DLBCL cells for their survival.

[6] = test system: doxorubicin-resistant EZH2GOF DLBCL (Karpas-422/NSG); assay: Karpas-422/NSG xenograft mouse model; assay type: in vivo; conditions: seventeen doses of ACY1035, five doses of doxorubicin
Method: (C) FACS analyses of human CD19 and IgM markers in peripheral blood of Karpas-422/NSG xenograft mice treated with solvent or doxorubicin (Doxo) or the HDAC1,2 inhibitor ACY1035 (H12IN). Seventeen doses of HDAC1,2 inhibitor and five doses of doxorubicin were administered.
The in vivo testing used a doxorubicin-resistant EZH2^GOF DLBCL (Karpas-422/NSG) mouse model and a doxorubicin-sensitive EZH2^WT DLBCL (SUDHL8/NSG) mouse model (FIG. 36). To create these models, NOD-SCID-Gamma (NSG) mice were injected intravenously (i.v.) with 1×10^6 Karpas-422 cells (chemoresistant and expressing the EZH2 gain-of-function mutant) or SUDHL8 cells (chemosensitive and expressing wild-type EZH2).

[7] = test system: normal NOD-SCID-Gamma mice; conditions: mouse
[8] = test system: normal NOD-SCID-Gamma mice; assay: hematoxylin and eosin staining of bone marrow and spleen, toxicity; conditions: 25 mg/kg ACY1035 (fifteen doses) or 0.5 mg/kg doxorubicin (six doses)
Karpas-422 cells = assay: propidium-iodide / BrdU-PI cell cycle analysis; assay type: cell-based, human; conditions: 48 h
Method: (B): Quantitation of the cell cycle data in (A), compiled from three independent analyses. The graphs plotted the average percentage of cells in each phase of the cell cycle. […] (C): FACS analysis following BrdU-PI staining of Karpas-422 and SUDHL4 cells was performed following a 48 h or 72 h treatment with ACY-957.
Cell cycle analysis of propidium-iodide stained cells was performed with fixed cells. […] (C): FACS analysis following BrdU-PI staining of Karpas-422 and SUDHL4 cells was performed following a treatment with 2 μM ACY-957, 50 nM doxorubicin or both for 48 h.
(B): Quantitation of the cell cycle analysis performed in (A). Data from three independent cell cycle analyses were compiled and average percentage cells with standard errors were shown in this panel.
Propidium-iodide Cell Cycle Analysis.
Since these DLBCL cells expressed a hyperactive form of EZH2, pharmacological inhibition of EZH2 activity was considered a therapeutic strategy. […] GSK126 was a S-adenosyl-methionine-competitive inhibitor of EZH2 methyltransferase activity, and DZNep was a S-adenosylhomocysteine hydrolase inhibitor that disrupted the components of the PRC2 complex, thereby causing reduced chromatin-associated EZH2 levels.
To test this possibility, cell cycle analysis following treatment of Karpas-422 with ACY-957, doxorubicin, or ACY-957 in combination with doxorubicin was performed.

[9] = test system: Karpas-422 (EZH2GOF) cells; assay: neutral comet assay of DSB repair; assay type: cell-based, human
From the text: (A) Measurement of repair efficiency in SUDHL5 (EZH2^WT) and Karpas-422 (EZH2^GOF) cells using neutral comet assay that detects only double-strand breaks (DSBs). In the comet, the head (H) represents intact DNA and the tail (T) represents the number of DSBs in a single cell. Tail moment is a measure of length and intensity of DNA in the tail, and the average tail moments from 100 comets are indicated within the figure for each cell/treatment combination. Doxo indicates doxorubicin; H121N indicates HDAC1,2 inhibitor. (B) DNA damage in EZH2GOF cells following knockdown of HDAC1,2 using siRNA. NT indicates non-targeting control siRNA; HDAC1,2 siRNA indicates combined treatment with HDAC1 siRNA and HDAC2 siRNA. (C) Karpas-422 cells treated with DMSO solvent or HDAC1,2 inhibitor were subjected to microlaser irradiation. H3K27me3, γH2AX, Bmi-1, and serine2-phosphorylated RNA Polymerase II (engaged in transcriptional elongation) were monitored at laser break sites (arrows) after 15 minutes of recovery time. Numbers overlaying the images indicate percentages of cells with γH2AX lines that co-localized with H3K27me3, Bmi-1, or Pol2Ser2-P lines from at least four independent experiments (p value<0.01).
Indeed, EZH2, H3K27me3, and HDAC1,2 all localize to sites of DNA breaks, which links them to DNA repair. […]

[10] = test system: SupB15 Pre-B-ALL leukemia xenograft; assay: SupB15 Pre-B-ALL leukemia xenograft mice; assay type: in vivo, mouse; conditions: same concentration of doxorubicin
From the text: Pre-B-ALL cell lines as well as Ph+ALL primary patient samples were engrafted in NOD scid gamma (NSG) mice to examine the efficacy of Hdac1,2 inhibitor in killing cells in vivo. We injected NSG mice with SupB15 cells (1×10^6) and Ph+Pre-B-ALL primary patient cells and monitored engraftment by flow cytometry using anti-human CD45/CD19 antibodies every week for 4-5 weeks. […] To examine the extent of leukemia infiltration in spleen and bone marrow, we performed IHC analysis.

SMILES	inhibition of Hdac1,2 activities compared to Hdac3 (IC50 values) (Hdac1,2)	DNA damage, quantitation of γH2AX foci [1]	damaged DNA (comet tail) (SupB15 cells [2])	γH2AX on the nascent chromatin (SupB15 cells [3])	human CD45 and CD19 markers in bone marrow [4]	white cell burden [4]	cell death [5]	human CD19 and IgM population in peripheral blood [6]	toxic effects in vivo [7]	morphology of bone marrow and spleen cells [8]	increase in the percentage of cells in G2/M phase (Karpas-422 cells; 50 nM doxorubicin) [fold]	cell death / sub-G1 population (Karpas-422 cells; 2 μM ACY-957, 50 nM doxorubicin or both)	DSBs, comet tail moment [9]	leukemia burden [10]
Nc1ccc(-c2cccs2)cc1NC(=O)c1ccc2c(c1)cc(C1CC1)n2CCN1CCOCC1 [ACY-1035, N-(2-amino-5-(thiophen-2-yl)phenyl)-2-cyclopropyl-1-(2-morpholinoethyl)-1H-indole-5-carboxamide]	very selectively	statistically significant increase in DNA damage	increase in damaged DNA	increase in γH2AX on the nascent chromatin	significant reduction in the human CD45 and CD19 markers; also recorded: greater decrease in the human leukemia markers when compared to doxorubicin-treated mice	decrease in the white cell burden	did not cause any cell death	significant decrease in human CD19 and IgM population in peripheral blood	does not have toxic effects in vivo	No changes in the morphology of spleen or bone marrow cells; also recorded: no abnormalities or changes in the cell morphology in bone marrow or spleens				
COc1cccc2c1C(=O)c1c(O)c3c(c(O)c1C2=O)C[C@@](O)(C(=O)CO)C[C@@H]3O[C@H]1C[C@H](N)[C@H](O)[C@H](C)O1 [doxorubicin, reference compound]					significant reduction in the human CD45 and CD19 markers	decrease in the white cell burden		no significant change in these markers		No changes in the morphology of spleen or bone marrow cells; also recorded: no abnormalities or changes in the cell morphology in bone marrow or spleens	1.5 to 2	modest increase in cell death	far less sensitive to doxorubicin	significantly decreased leukemia burden
